According to paper PMC12298104, “mRNA Expression of Two Colon Enzymes in Pre-Pubertal Gilts During a 42-Day Exposure to Zearalenone” (Toxins, 2025):

Assays:
[1] = Concentrations of ZEN, α-ZEL and β-ZEL in colon tissue (immunoaffinity extraction, LC-MS/MS); format: in vivo, pre-pubertal gilts; settings: for difference in mean ZEN levels between ascending and descending colon / difference in ZEN concentration in the descending colon: p ≤ 0.01; for ZEN metabolites in the distal colon: gilts given 40 μg ZEN/kg BW orally daily, 42 days
Description: (§1) Group E gilts were given ZEN orally at a dose of 40 μg ZEN/kg BW (Table 1). At the time of designing the experiment, the above value was equivalent to the no-observed-adverse-effect level (NOAEL) stipulated in the EFSA guidelines, which is 10 times higher than the current dose. Animals from group C received a placebo. The experiment lasted 42 days. The ZEN dose was adjusted to the BW of group E animals. Zearalenone was administered in enteric-coated capsules to avoid problems with uneven food intake. On each day of the experiment, the mycotoxin was administered orally before the morning feeding. Feed was used as a vector. Group C gilts received a placebo, i.e., the same gastro-resistant capsules with the vector, but without ZEN. Zearalenone was dissolved in 500 μL of 96% C2H5OH (96% ethyl, SWW 2442-90, Polskie Odczynniki Chemiczne SA, Gliwice, Poland) to obtain the dose needed (adjusted to BW). The obtained solutions were stored at a temperature of 20 °C for 12 h. Pre-pubertal gilts were weighed once a week to adjust ZEN doses to the needs of each animal. Three gilts from each experiment group were killed on day 7 (1st week of exposure), 14 (2nd week of exposure), 21 (3rd week of exposure), 28 (4th week of exposure), 35 (5th week of exposure), and 42 (6th week of exposure). On each of the above dates, the animals were euthanized by intravenous administration of sodium pentobarbital (Fatro, Ozzano Emilia, BO, Italy). Tissue samples (approx. 1.0 cm × 1.5 cm) from the middle parts of both examined colon sections were collected immediately after cardiac arrest. Samples were washed with phosphate buffer and prepared for toxicological analyses and gene expression assessment. Laboratory analyses were conducted within one month after tissue sampling.
Zearalenone, α-ZEL, and β-ZEL were extracted from tissue samples using immunoaffinity columns (Zearala-TestTM Zearalenone Testing System, G1012, VICAM, Watertown, MA, USA) according to the manufacturer’s instructions. The eluates were placed in a water bath at 50 °C and evaporated in nitrogen stream. Until chromatographic analysis, the dry residues were stored at −20 °C. The results were verified by mass spectrometry and the procedure was monitored using internal standards.
ZEN, α-ZEL, and β-ZEL tissue concentrations were determined using an Agilent 1260 liquid chromatograph (LC) and an Agilent 6470 mass spectrometer (MS). The prepared samples were analyzed using an Agilent ZORBAX high-resolution HPLC column (Agilent Eclipse Plus C18; 2.1 × 50 mm, 1.8 µm) in a gradient elution program. The mobile phase consisted of 0.1% (v/v) formic acid dissolved in water (solvent A) and 0.1% (v/v) formic acid dissolved in acetonitrile (solvent B). The gradient program began with 20% B, which was increased to 100% B after 4.0 min and decreased to 20% B after 0.1 min.
Mycotoxins were quantified using external standards and were expressed in ppb (ng/mL). Calibration standards are fitted to the detector to eliminate detector influences that may reduce test sensitivity. Following the procedure described for the remaining samples, calibration standards were dissolved in the matrix samples (matrix-matched calibration). The material for the preparation of calibration standards was free from mycotoxins. The signal-to-noise ratio (3:1) was […] for ZEN, α-ZEL, and β-ZEL. The LOQ was defined as three times the LOD.
Electrospray ionization (ESI) mass spectrometry was performed in negative ion mode. MS/MS indices were optimized for all compounds. Using a six-level calibration curve, linearity was assessed.
The results were statistically processed at the Department of Discrete Mathematics and Theoretical Computer Science, Faculty of Mathematics and Computer Science of the University of Warmia and Mazury in Olsztyn. […]

CYP1A1 gene = assay: CYP1A1 mRNA expression in the ascending and descending colon (qPCR); format: in vivo, pre-pubertal gilts; design: difference in CYP1A1 gene expression between groups C and E: scale not given here; settings: for mean CYP1A1 gene expression during the entire experiment (expression ratio vs control at start = 1.00): group E
Description: as §1
(§2) Colon tissue samples were collected immediately after cardiac arrest. According to the manufacturer’s instructions (Sigma-Aldrich, Taufkirchen, Germany), samples were stored in RNAlater solution.
(§3) According to the manufacturer’s protocol, total RNA was extracted from tissues preserved in RNAlater (ca. 20 mg per sample; […] in each group) using the Total RNA Mini kit (A&A Biotechnology, Gdynia, Poland). RNA samples were incubated in ribonuclease-free DNAse I (Roche Diagnostics, Mannheim, Germany) to prevent contamination with genomic DNA. Overall RNA quality and purity from all samples were assessed using a BioPhotometer (Eppendorf, Germany) and the results were used for cDNA synthesis using the RevertAid™ First Strand cDNA Synthesis Kit (Fermentas, Burlington, ON, Canada). According to the manufacturer’s protocol, the reaction was performed using a cDNA synthesis reaction mixture for each sample, which consisted of 1 µg of total RNA and 0.5 µg of oligo (dT)18 primers. The first synthesized cDNA chain was stored at −20 °C pending further analysis.
Real-time PCR primers for target mRNA were designed using the Primer-BLAST tool based on reference species (Table 4). Real-time PCR was performed on an ABI 7500 Real-Time PCR system (Applied Biosystems, Foster City, CA, USA) in single plex mode; further procedures were performed according to the manufacturer’s instructions. Each PCR reaction tube contained 10 μL of the FastStart SYBR Green Master ROX mix (Roche Diagnostics), 0.25–0.5 μM of each primer (forward and reverse; Table 4), and 1 μL of the previously synthesized cDNA as a template, supplemented with PCR-grade H2O to a final volume of 20 μL. The reaction was performed under the following standard thermal conditions: 95 °C for 10 min, followed by 45 cycles of 95 °C for 15 s and 60 °C for 1 min. Negative water controls (NTCs) were included to rule out cross-contamination. The quality of PCR products was verified by melting curve analysis, followed by agarose gel electrophoresis. The specificity of the designed primer pairs was confirmed by sequencing the obtained PCR products ([…]). […]

GSTπ1 gene = assay: GSTπ1 mRNA expression in the ascending and descending colon (qPCR); format: in vivo, pre-pubertal gilts; settings: for difference in GSTπ1 gene expression between groups C and E: p ≤ 0.05; for average expression of the GSTπ1 gene during the entire experiment (expression ratio vs control at start = 1.00): group E
Description: as §1, §2, §3
Real-time PCR primers for target mRNA were designed using the Primer-BLAST tool based on reference species (Table 4). Real-time PCR was performed on an ABI 7500 Real-Time PCR system (Applied Biosystems, Foster City, CA, USA) in single plex mode; further procedures were performed according to the manufacturer’s instructions. Each PCR reaction tube contained 10 μL of the FastStart SYBR Green Master ROX mix (Roche Diagnostics), 0.25–0.5 μM of each primer (forward and reverse; Table 4), and 1 μL of the previously synthesized cDNA as a template, supplemented with PCR-grade H2O to a final volume of 20 μL. […]

[2] = Clinical signs during the 42-day exposure; format: in vivo, pre-pubertal gilts; settings: 40 μg ZEN/kg BW orally daily for 42 days
Description: as §1, with “On each of the above dates, the animals were euthanized by intravenous administration of sodium pentobarbital (Fatro, Ozzano Emilia, BO, Italy). Tissue samples (approx. 1.0 cm × 1.5 cm) from the middle parts of both examined colon sections were collected immediately after cardiac arrest. Samples were washed with phosphate buffer and prepared for toxicological analyses and gene expression assessment. Laboratory analyses were conducted within one month after tissue sampling.” left out

[3] = cited from earlier work
[4] = design: method as in PMID 25283475; settings: value at the time of designing the experiment; 10 times higher than the current dose; cited from earlier work

C[C@H]1CCCC(=O)CCC/C=C/c2cc(O)cc(O)c2C(=O)O1 [ZEN, Zearalenone]
ZEN strength in the ascending colon, on average ([1]; 40 μg ZEN/kg BW orally daily, average over each week of exposure (weeks 1-6)): 2.09 ng ZEN/g
mean ZEN strength in the descending colon, on average ([1]; 40 μg ZEN/kg BW orally daily, first three weeks of exposure): 6.4 ng ZEN/g
concentration at 4 week of exposure ([1]; female, pig, descending colon tissue, po, 40 μg ZEN/kg BW orally daily, week 4): 205 ng/g
concentration at 5 week of exposure ([1]; female, pig, descending colon tissue, po, 40 μg ZEN/kg BW orally daily, week 5): 177 ng/g
concentration at 6 week of exposure ([1]; female, pig, descending colon tissue, po, 40 μg ZEN/kg BW orally daily, week 6): 112 ng/g
difference in mean ZEN levels between ascending and descending colon ([1]; week 4): 200.33 ng ZEN/g
difference in ZEN concentration in the descending colon ([1]; week 4 vs week 1): 200.31 ng ZEN/g
difference in ZEN concentration in the descending colon ([1]; week 4 vs week 2): 198.21 ng ZEN/g
difference in ZEN concentration in the descending colon ([1]; week 4 vs week 3): 197.44 ng ZEN/g
difference in mean ZEN levels between ascending and descending colon ([1]; week 5): 173.61 ng ZEN/g
difference in ZEN concentration in the descending colon ([1]; week 5 vs week 1): 172.31 ng ZEN/g
difference in ZEN concentration in the descending colon ([1]; week 5 vs week 2): 170.21 ng ZEN/g
difference in mean ZEN levels between ascending and descending colon ([1]; week 6): 109.55 ng ZEN/g
difference in CYP1A1 gene expression between groups C and E (CYP1A1 gene; ascending colon, week 4, p ≤ 0.01): 0.98
difference in CYP1A1 gene expression between groups C and E (CYP1A1 gene; ascending colon, week 5, p ≤ 0.01): 1.16
difference in CYP1A1 gene expression between groups C and E (CYP1A1 gene; descending colon, week 1, higher in group C, p ≤ 0.01): 0.41
difference in CYP1A1 gene expression between groups C and E (CYP1A1 gene; descending colon, week 2, higher in group C, p ≤ 0.05): 0.14
difference in CYP1A1 gene expression between groups C and E (CYP1A1 gene; descending colon, week 3, higher in group E, p ≤ 0.05): 0.13
difference in CYP1A1 gene expression between groups C and E (CYP1A1 gene; descending colon, week 5, higher in group C, p ≤ 0.05): 0.24
mean CYP1A1 gene expression during the entire experiment (expression ratio vs control at start = 1.00) (CYP1A1 gene; ascending colon, group C 0.99): 0.73
mean CYP1A1 gene expression during the entire experiment (expression ratio vs control at start = 1.00) (CYP1A1 gene; descending colon, group C 0.57): 0.43
difference in GSTπ1 gene expression between groups C and E (GSTπ1 gene; ascending colon, week 1, higher in group C): 0.35
difference in GSTπ1 gene expression between groups C and E (GSTπ1 gene; descending colon, week 2, lower in group E): 0.27
difference in GSTπ1 gene expression between groups C and E (GSTπ1 gene; descending colon, week 6, lower in group E): 0.34
average expression of the GSTπ1 gene during the entire experiment (expression ratio vs control at start = 1.00) (GSTπ1 gene; ascending colon, group C 0.96): 0.39
average expression of the GSTπ1 gene during the entire experiment (expression ratio vs control at start = 1.00) (GSTπ1 gene; descending colon, group C 1.07): 0.94
clinical signs of zearalenone mycotoxicosis [2]: No clinical signs
solubility in fats and alkaline aqueous solutions ([3]; fats and alkaline aqueous solutions): soluble in fats and alkaline aqueous solutions
solubility in water ([3]; water): almost insoluble in water
no-observed-adverse-effect level (NOAEL) [4]: 40 μg ZEN/kg BW

C[C@H]1CCC[C@@H](O)CCC/C=C/c2cc(O)cc(O)c2C(=O)O1 [β-ZEL, β-zearalenol]
ZEN metabolites in the distal colon [1]: no ZEN metabolites (α-ZEL and β-ZEL) were found

C[C@H]1CCC[C@H](O)CCC/C=C/c2cc(O)cc(O)c2C(=O)O1 [α-ZEL, α-zearalenol]
ZEN metabolites in the distal colon [1]: no ZEN metabolites (α-ZEL and β-ZEL) were found
